These results are taken from patent US20130195956A1, “Transdermal Hormone Delivery” (Agile Therapeutics, Inc., priority 2012, published 2013).

Data set [1] is described as follows: Slide and patch crystallization studies for saturation solubility in adhesives and additives. The class given is physicochemical. The procedure: Drug in adhesive transdermal patches were prepared as follows. Predetermined amounts of drug, adhesive, ethyl acetate and/or additives (copovidone/mineral oil) were weighed into a glass container with lid and sealed using a parafilm to minimize loss of organic solvents. The formulation was stirred for 2 hours using a magnetic stirrer to form a homogenous mixture. The mixture was then cast on a release liner (3 mil fluoropolymer coated polyester film, Scotchpak™ 9744 from 3M) using a Gardner film casting knife (BYK-AG-4300 series, Columbia, Md., USA) and the cast sheet was dried in an oven at 60° C. for 17 minutes. Thereafter, the entire sheet was laminated using a backing membrane (2 mil polyester with an ethylene vinyl acetate copolymer, Scotchpak™ 9732 from 3M), which was placed on the cast film using a roller, ensuring no air pockets were formed. […]
The three different adhesives that were investigated for the preparation of desogestrel transdermal patches were two acrylate adhesives, Duro-Tak 87-4098 and Duro-Tak 87-202A, and one PIB adhesive, Duro-Tak 87-608A. […] The saturation solubility of desogestrel in these adhesives was determined using the slide method discussed earlier as well as crystallization studies on complete patches. […]

For data set [2] the following is noted: cited from earlier work.
Data set [3] can be described thus: 7 day in vitro skin permeation, Franz diffusion cells, hairless rat abdominal skin. The note with it: for average cumulative amount permeated at the end of 7 days: donor: saturated solution in PEG-400, FIG. 6.
Description: Skin was isolated from hairless rats (male, 8-10 weeks old and 350-400 g in weight) that were obtained from Charles River (Wilmington, Mass., USA). All the animals were allowed to acclimate for at least 1 week prior to their use in any experiment. […] Hairless rats were euthanized by carbon dioxide asphyxiation prior to the permeation experiment and abdominal skin was carefully excised using a pair of scissors and forceps. The underlying subcutaneous fat was removed from the excised skin and the abdominal skin thus obtained (˜1 mm thick) was used for the permeation experiments.
The 7 day permeation studies were performed using in vitro Franz diffusion cells (PermeGear, Inc., Hellertown, Pa., USA) having an effective diffusion surface area of 0.64 cm^2 (n≧3). […] These served as corresponding donor solutions. The receptor phase consisted of PEG 400 having gentamycin sulfate (80 mg/L). Gentamycin sulfate was added to the receptor phase to prevent microbial growth during the 7 day study. During the entire study, the receptor phase was maintained at 37° C. with constant stirring at 600 rpm. Freshly excised and cleaned hairless rat abdominal skin was obtained on the day of the experiment. This isolated skin was placed in between the donor and the receptor compartments and the entire set up was then secured in place using a clamp. Donor solution (0.5 ml) was then loaded into the donor cells using a pipette and the top was covered using parafilm and a silver foil. […] The only difference was that instead of using the saturated desogestrel solution as donor, desogestrel containing patches were used. Transdermal patches, large enough to cover the receptor compartment top, were cut out of the cast sheets, the release liner was removed and the patches were placed on the skin such that the adhesive side of the patch was facing the stratum corneum side of the skin. The donor cell was then placed and the entire set up was secured using a clamp. All samples obtained were analyzed using HPLC.
Analysis of the amount of drug in the samples was performed using a chromatographic method described in the literature with few modifications. […] Phenomenex RP C6 Luna 5μ column (Phenomenex, Torrance, Calif.) set at 35° C. was employed for gradient elution method. The mobile phase consisted of methanol and water. The gradient method was initiated with the use of a 70:30 (methanol:water) solution, followed by a change of the mobile phase composition to 100% methanol over the next 7 minutes. This methanol:water (100:0) composition was maintained till the 10th minute and then the mobile phase composition was changed again to a composition of 70:30 (methanol:water) by the 12th min. The run time of each injection was 15 minutes and the injection volume was 100 μl. The flow rate of the mobile phase throughout the run was 1.5 ml/min. […] The standard curve was linear over the range of 0.5-100 μg.
Student t-test and analysis of variance (ANOVA) were used to determine statistically significant differences. The p-value used in this study was 0.05.
The procedure of data set [4]:
Sheets were cast with the blend shown in Table 1 and dried for 17 minutes at 60 degrees Centigrade. Drying was followed by lamination to a polyester backing membrane and circular cutting of individual patches. The dry formulation of the patches is shown in the second column of Table 1.

The nature of data set [5]: Skin permeation of LNG from LNG/EE patches with four enhancers, Franz diffusion cells, human skin compared with rat skin. The class given is in vitro ADME. Particulars: patches of Example 1 with four skin permeation enhancers; FIGS. 1-4. How it is done: A skin permeation experiment for the delivery of LNG from the patches prepared in Example 1 was performed (n=3). Three separate patches were cut to appropriate size such that they would cover the top of the receptor compartment of a Franz skin diffusion cell (exposed surface area of 0.64 cm^2). Hairless rat skin was freshly excised before the permeation experiment. PBS (0.1×) having 80 mg/L gentamycin sulfate and 0.5% Volpo was used as the receptor buffer (pH 7.2). Samples (0.5 ml) were taken at predetermined time points (3 hr, 6 hr, 12 hr, 24 hr, 2nd, 3rd, 4th, 5th, 6th and 7th day) and were analyzed for LNG levels using High Pressure Liquid Chromatography (HPLC).
The average flux (FIG. 1) and the cumulative amount (FIG. 2) of LNG that permeated across the hairless rat skin, during a period of four days, were determined and are shown below. In addition, patches manufactured using production equipment under the same processes and containing exactly the same amounts and ingredients as the pilot patches mentioned in Example 1 were used for comparison.
The above studies were performed using rat skin, which, for many drugs, is known to have similar permeation characteristics as human skin. […]

[6] abbreviates: general statement in description.

Each structure is given as a SMILES string. Where “and” joins values, the source holds several entries; their conditions need not be identical. Equal entries are not always repeated.

As for `C#C[C@]1(O)CC[C@H]2[C@@H]3CCC4=CCCC[C@@H]4[C@H]3C(=C)C[C@@]21CC` [desogestrel], the “saturation solubility in PIB adhesive (Duro-Tak 87-608A)” value in data set [1] (slides and patches) is given as 3-4 % w/w. The “saturation solubility in copovidone (Plasdone S-630)” value in data set [1] (slides, drug:copovidone w/w ratios, up to 6 months) was 70-80 % w/w and 70 % w/w. Further, in data set [2], the logP was 4. Also, the “average cumulative amount permeated at the end of 7 days” value in data set [3] (hairless rat skin) is on record as 389.4±6.2 μg/sq.cm. Besides, in data set [3] (setting [6]), the “skin permeation relative to ethinyl estradiol” value is recorded as “higher” and the “skin permeation relative to levonorgestrel” value is given as “approximately ten-fold higher”. For the same compound, the “average cumulative amount and flux from saturated PEG solution compared with optimized patches” value in data set [3] (p<0.05, hairless rat skin) is on record as “significantly higher”. For the same compound, in data set [3] (saturated PEG-400 solutions, p<0.05, FIGS. 5 and 6), the “average flux and cumulative amount compared with levonorgestrel” value is “significantly higher”.
For the compound `C#C[C@]1(O)CC[C@H]2[C@@H]3CCc4cc(O)ccc4[C@H]3CC[C@@]21C` [ethinyl estradiol], the “saturation of the patch with the hormone” value in data set [4] was found to be 22%.
On to `C#C[C@]1(O)CC[C@H]2[C@@H]3CCC4=CC(=O)CC[C@@H]4[C@H]3CC[C@@]21CC` [levonorgestrel], for which the “permeation through rat skin compared with permeation through human skin” value in data set [5] is on record as “very similar”. Besides, in data set [2], the logP is given as 3.8. The “average cumulative amount permeated at the end of 7 days” value in data set [3] (hairless rat skin) was found to be 1.8±0.1 μg/sq.cm.

For orientation: logP means the decadic logarithm of the partition coefficient of the neutral form, usually between octanol and water.
